Results published in US5286721A, “1-azabicyclo[3.2.0]hept-2-ene-2-carboxylic acid compounds” (Fujisawa Pharmaceutical Co., Ltd., priority 1990, dated 1994).

Tested on: S. aureus 6
Experiment: In vitro antimicrobial activity (two-fold agar-plate dilution method)
Type: cell-based
Conditions: Staphylococcus aureus, heart infusion agar (HI-agar), 10^6 viable cells per ml, 37° C., 20 hours, read-out: MIC (minimal inhibitory concentration)
Description: In vitro Antimicrobial Activity was determined by the two-fold agar-plate dilution method as described below.
One loopful of an overnight culture of a test strain in Trypticase-soy broth (10^6 viable cells per ml) was streaked on heart infusion agar (HI-agar) containing graded concentrations of the test compound, and the minimal inhibitory concentration (MIC) was expressed in terms of μg/ml after incubation at 37° C. for 20 hours.

MIC: ≤ 0.025 µg/mL
Structure (SMILES): C[C@@H](O)[C@H]1C(=O)N2C(C(=O)O)=C(C3CN=CNC3)C[C@H]12 (stereo partly drawn) [Example 1, [5R,6S)-6-[(R)-1-hydroxyethyl]-3-[3,4,5,6-tetrahydropyrimidin-5-yl]-7-oxo-1-azabicyclo[3.2.0]hept-2-ene-2-carboxylic acid]
